Key:
[1] = ROS-generating activity in cell-free system (H2DCFDA, HRP); type: biochemical; conditions: GSH 0.25 μM or 2.5 μM added to SsnB 10 μM + H2DCFDA + HRP
Protocol: FIG. 2D and FIG. 2E illustrate the ROS generating capacity of SsnB evaluated in a cell-free system containing H2DCFDA (25 μM), horseradish peroxidase (HRP, 5 units/ml), SsnB (10 μM) and glutathione (GSH, 0.25 or 2.5 μM) alone or in various combinations. Optical density (O.D.) at 540 nm were taken at different time points and plotted.
In a reaction system, after the removal of acetate group by cellular esterases and oxidation by reactive oxygen species, the non-fluorescent carboxy-H2DCFDA dye is oxidized to fluorescent molecule carboxy-DCF. To measure the ROS-generating activity of SsnB, the oxidation of carboxy-H2DCFDA dye was monitored in a cell-free system containing carboxy-H2DCFDA dye, horseradish peroxidase (HRP) and SsnB at 540 nm. HRP was used to supply esterase since without esterase carboxy-H2DCFDA is not sensitive to oxidant. […] After addition of HRP (5 units/ml) in the reaction mixture containing SsnB (10 μM)+H2DCFDA dye (25 μM), the OD value increased by 2% in the first 240 sec and further increased by 8% after 15 min compared to H2DCFDA+HRP reaction, indicating the increased oxidation of H2DCFDA to the fluorescent compound.

[2] = tested on: caspase-3 in neuroblastoma cells; experiment: Cleaved caspase-3 by immunofluorescence and Western blotting; type: cell-based, human; conditions: NAC 1 and 5 mM pretreatment, SsnB 10 μM; SH-SY5Y and SK-N-BE(2) cells
Protocol: For immunofluorescence staining, cells grown in Lab-TekII chamber slides (Fisher Scientific, Pittsburgh, Pa.) were treated with SsnB in complete culture medium. After treatments, cells were washed with 1×PBS, fixed with 4% paraformaldehyde/PBS for 20 min, and permeabilized with 0.2% Triton X-100/PBS for 10 min at room temperature. Cells were washed with 1×PBS for 3 times and blocked with 5% immunoglobulin (IgG) free-bovine serum albumin (BSA; Jackson ImmunoResearch Laboratories, West Grove, Pa.) in 1×PBS for overnight at 4° C. Cells were incubated with antibody raised against active form of caspase-3 (Cell Signaling Technology, Danvers, Mass.) diluted in 2.5% BSA/PBS for overnight at 4° C. Primary antibodies were detected with secondary antibodies conjugated with fluorescein isothiocyanate (FITC; Santa Cruz Biotechnology, Dallas, Tex.) for 2 h at room temperature. After washing with 1×PBS, cells were mounted with antifade Vectashield mounting media (Vector Laboratories, Burlingame, Calif.), and signals were visualized under Nikon-E600 fluorescence microscope. Nuclei were counterstained with 4′,6-diamidino-2-phenylindole (DAPI; Sigma).
After treatment with SsnB, cells were collected, washed with 1×PBS, and lysed with 1× cell lysis buffer (Cell Signaling Technology, Danvers, Mass.) containing phenylmethylsulfonyl fluoride (PMSF) and protease inhibitors (aprotinin and leupeptin) for 30 min on ice, and centrifuged at 12000×rpm for 10 min at 4° C. Supernatant (total cell protein) was collected and stored at −80° C. Protein concentration was determined by bicinchoninic acid method using BCA protein assay kit (Pierce/ThermoScientific, Waltham, Mass.). Equal amount of proteins were diluted with 5× Laemmli samples loading buffer and boiled for five minutes. The proteins were subjected to sodium dodecyl sulfate (SDS)-polyacrylamide gel electrophoresis and analyzed by Western blots. Briefly, after electrophoresis, proteins were transferred on polyvinylidene difluoride (PVDF) membrane at 100 volt for 3 h in cold room. Membrane was blocked with 5% non-fat dry milk/TBST (20 mM Tris-Cl, pH 7.4; 150 mM NaCl with 0.1% Tween-20) for 4 h at room temperature followed by incubation in primary antibodies diluted in 2.5% non-fat dry milk/TBST for overnight at 4° C. After washing with TBST, membrane was incubated with secondary antibodies (horseradish peroxidase-conjugated goat anti-rabbit or goat anti-mouse IgG; Santa Cruz Biotechnology, Dallas, Tex.) diluted in 2.5% non-fat dry milk/TBST for 3 h at room temperature. Signals were detected by chemiluminiscence detection kit (Pierce/Thermo Fisher Scientific, Rockford, Ill.). Primary antibodies used were cleaved caspase-3 and β-actin (Cell Signaling Technology), N-myc and p53 (Santa Cruz Biotechnology).
At cellular level, mitochondria- or receptor (Fas/FasL)-mediated pathways activate caspase signaling cascade which in turn induces DNA damage and initiates programmed cell death (apoptosis). To determine whether SsnB-induced cell death is mediated by caspase activation, Western blotting as well as immunofluorescence assay were performed to detect the active form of caspase-3 in neuroblastoma cells treated with SsnB for 2 days (SH-SY5Y and IMR-32 cells), 3 days (NGP cells) or 4 days (SKNF-1 and SK-N-BE(2) cells). The number of cleaved caspase-3 positive cells were quantitated by ImageJ programme and plotted. […]

[3] = tested on: reactive oxygen species in neuroblastoma cells; experiment: ROS generation, H2DCFDA fluorometry assay; type: cell-based, human; conditions: NAC 1 and 5 mM, SsnB 10 μM; p<0.05 vs SsnB alone
Protocol: The production of reactive oxygen species (ROS) in SsnB-treated neuroblastoma cells was detected by a cell-permeable fluorescence probe H2DCFDA (carboxy-2′,7′-dichlorodihydrofluorescein diacetate) according to the manufacturer's instructions (Invitrogen, Carlsbad, Calif.). Briefly, neuroblastoma cells were cultured in DMEM with 10% FBS in Lab-TekII chamber slides (Fisher Scientific, Pittsburg, Pa.) and treated with SsnB for 2 days (SH-SY5Y and IMR-32 cells), 3 days (NGP cell) or 4 days (SKNF-1 and SK-N-BE(2) cells). After treatments, cells were washed with Hank's buffered salt solution (HBSS; Thermo Scientific, Waltham, Mass.) and incubated with 25 μM of carboxy-H2DCFDA dye for 30 min at 37° C. in dark. Nuclei were counterstained with DAPI. Cells were washed three times with HBSS, mounted with Vectashield mounting medium (Vector Laboratories), and immediately examined under Nikon-E600 fluorescence microscopy equipped with fluorescein isothiocyanate (FITC) filter. Oxidation of H2DCFDA probe occurs almost exclusively in the cytosol, and generates a fluorescence that is proportional to ROS generation in that cell. As a negative control, cells without H2DCFDA dye were used to detect autofluorescence. The fluorometric analysis to detect generation of ROS was performed. Briefly, after treatments with SsnB as mentioned above, cells were labeled with carboxy-H2DCFDA dye (25 μM) for 30 min at 37° C. Cells were trypsinized, washed, and re-suspended in PBS and fluorescence intensity was monitored at excitation wavelength 485 nm and emission wavelength 530 nm with a spectramax spectrophotometer (Molecular Devices, Sunnyvale, Calif.).
SsnB-induced generation of ROS was also evaluated by fluorometry assay. Neuroblastoma cells as treated above were incubated with H2DCFDA dye for 30 min and the fluorescence intensity was measured at 485 nm (excitation wavelength) and 530 nm (emission wavelength).

[4] = tested on: human neuroblastoma cell lines (SH-SY5Y, SKNF-1, NGP, IMR-32 and SK-N-BE(2) cells); experiment: MTT cell viability assay; type: cell-based; conditions: NAC 1 mM or 5 mM pretreatment 1 h, then SsnB 10 μM; p<0.05 vs SsnB alone
From the text: Human neuroblastoma cell lines (SH-SY5Y, IMR-32, SK-N-BE(2) and SKNF-1 cells) were obtained from The American Type Culture Collection (ATCC; Manassas, Va.), and NGP cells were kind gift from Garrett M. Brodeur (The Children's Hospital of Philadelphia, Philadelphia, Pa.). All cell lines were maintained in complete Dulbecco's Modified Eagle's Medium (DMEM) supplemented with 10% fetal bovine serum (FBS; Atlanta Biologicals, Lawrenceville, Ga.) and 1× antibiotic-antimycotic solution (containing 100 U/ml penicillin, 100 μg/ml streptomycin and 0.25 μg/ml amphotericin B), and grown at 37° C. in a humidified incubator with 5% CO2. Stock solution of SsnB was prepared in dimethyl sulfoxide (DMSO). Cells treated with different concentrations of SsnB in DMEM with 10% FBS were grown for subsequent days. Cells treated with equal volume of DMSO were used as control.
The viability of SsnB-treated cells was determined by MTT assay following manufacturer's instructions (Roche diagnostics corporation, Indianapolis, Ind.). Briefly, cells (1×10^4 cells/well) grown in 96-well cell culture plate were incubated with or without SsnB in 100 μl of complete culture medium with 10% FBS. After treatments, cells were incubated with 10 μl of MTT reagent for 4 h and then incubated overnight in solubilization buffer (100 μl) at 37° C. Absorbance of the formazan product was read at 575 nm in spectramax spectrophotometer (Molecular Devices, Sunnyvale, Calif.). A reference wavelength of 690 nm was used to detect background. The measured absorption directly correlated with the number of viable cells in culture. The experiments were performed in triplicate and repeated at least three times.
MTT assay was carried out to examine the effects of SsnB on viability of all the above listed neuroblastoma cells. After 2 days (SH-SY5Y and IMR-32), 3 days (NGP cells) or 4 days (SKNF-1 and SK-N-BE(2) cells) treatment with SsnB (1, 5, 10 and 20 μM), MTT cell viability assays were performed.

Row | Compound | OD value on addition of GSH [1] | activation of caspase-3 in SsnB-treated cells [2] | ROS levels in SsnB-treated cells [3] | viability of SsnB-treated cells [4]
1 | N[C@@H](CCC(=O)N[C@@H](CS)C(=O)NCC(=O)O)C(=O)O [GSH, glutathione, reference compound] | lowers the OD value in a dose dependent manner | – | – | –
2 | CC(=O)NCCSSCCN [NAC, N-acetylcystamine, reference compound] | – | inhibited the activation of caspase-3 | significantly reduced ROS levels | significantly increased the viability
